# Data from PubChem BioAssay (NCI).
#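 Five concentrations, 48 hours, 96-well plates. TGI: total growth inhibition.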
# What was measured:
# Assay in all cases: DTP human tumour cell line panel, 48 h
# 786-0 renal = system: 786-0 renal
# A498 renal = system: A498 renal
# A549 NSCLC = system: A549 NSCLC
# ACHN renal = system: ACHN renal
# BT-549 breast = system: BT-549 breast
# CAKI-1 renal = system: CAKI-1 renal
# CCRF-CEM leukemia = system: CCRF-CEM leukemia
# COLO 205 colon = system: COLO 205 colon
# DU-145 prostate = system: DU-145 prostate
# EKVX NSCLC = system: EKVX NSCLC
# HCC-2998 colon = system: HCC-2998 colon
# HCT-116 colon = system: HCT-116 colon
# HCT-15 colon = system: HCT-15 colon
# HL-60(TB) leukemia = system: HL-60(TB) leukemia
# HOP-62 NSCLC = system: HOP-62 NSCLC
# HOP-92 NSCLC = system: HOP-92 NSCLC
# HS 578T breast = system: HS 578T breast
# HT29 colon = system: HT29 colon
# IGROV1 ovarian = system: IGROV1 ovarian
# K-562 leukemia = system: K-562 leukemia
# KM12 colon = system: KM12 colon
# LOX IMVI melanoma = system: LOX IMVI melanoma
# MALME-3M melanoma = system: MALME-3M melanoma
# MCF7 breast = system: MCF7 breast
# MDA-MB-231 breast = system: MDA-MB-231 breast
# MDA-MB-435 = system: MDA-MB-435
# MDA-N = system: MDA-N
# MOLT-4 leukemia = system: MOLT-4 leukemia
# NCI-H23 lung = system: NCI-H23 lung
# NCI-H460 lung = system: NCI-H460 lung
# NCI-H522 lung = system: NCI-H522 lung
# NCI/ADR-RES ovarian = system: NCI/ADR-RES ovarian
# OVCAR-3 ovarian = system: OVCAR-3 ovarian
# OVCAR-4 ovarian = system: OVCAR-4 ovarian
# OVCAR-5 ovarian = system: OVCAR-5 ovarian
# OVCAR-8 ovarian = system: OVCAR-8 ovarian
# PC-3 prostate = system: PC-3 prostate
# RPMI-8226 leukemia = system: RPMI-8226 leukemia
# SF-268 CNS = system: SF-268 CNS
# SF-295 CNS = system: SF-295 CNS
# SF-539 CNS = system: SF-539 CNS
# SK-MEL-2 melanoma = system: SK-MEL-2 melanoma
# SK-MEL-28 melanoma = system: SK-MEL-28 melanoma
# SK-MEL-5 melanoma = system: SK-MEL-5 melanoma
# SK-OV-3 ovarian = system: SK-OV-3 ovarian
# SN12C renal = system: SN12C renal
# SNB-19 CNS = system: SNB-19 CNS
# SR leukemia = system: SR leukemia
# SW-620 colon = system: SW-620 colon
# T-47D breast = system: T-47D breast
# TK-10 renal = system: TK-10 renal
# U251 CNS = system: U251 CNS
# UACC-257 melanoma = system: UACC-257 melanoma
# UACC-62 melanoma = system: UACC-62 melanoma
# UO-31 renal = system: UO-31 renal
# M14 melanoma = system: M14 melanoma
# RXF 393 renal = system: RXF 393 renal
# SNB-75 CNS = system: SNB-75 CNS
# NCI-H226 lung = system: NCI-H226 lung
smiles,measurement,setting,value
O=C1CSC(c2cccc(Cl)c2)N1c1ccc(-n2c(-c3ccccc3)nc3ccccc3c2=O)cc1 (stereo not given),TGI,786-0 renal,> 100 µM
same,TGI,A498 renal,> 100 µM
same,TGI,A549 NSCLC,> 100 µM
same,TGI,ACHN renal,> 100 µM
same,TGI,BT-549 breast,> 100 µM
same,TGI,CAKI-1 renal,> 100 µM
same,TGI,CCRF-CEM leukemia,> 100 µM
same,TGI,COLO 205 colon,> 100 µM
same,TGI,DU-145 prostate,> 100 µM
same,TGI,EKVX NSCLC,> 100 µM
same,TGI,HCC-2998 colon,> 100 µM
same,TGI,HCT-116 colon,> 100 µM
same,TGI,HCT-15 colon,> 100 µM
same,TGI,HL-60(TB) leukemia,> 100 µM
same,TGI,HOP-62 NSCLC,> 100 µM
same,TGI,HOP-92 NSCLC,> 100 µM
same,TGI,HS 578T breast,> 100 µM
same,TGI,HT29 colon,> 100 µM
same,TGI,IGROV1 ovarian,> 100 µM
same,TGI,K-562 leukemia,> 100 µM
same,TGI,KM12 colon,> 100 µM
same,TGI,LOX IMVI melanoma,> 100 µM
same,TGI,MALME-3M melanoma,> 100 µM
same,TGI,MCF7 breast,> 100 µM
same,TGI,MDA-MB-231 breast,> 100 µM
same,TGI,MDA-MB-435,> 100 µM
same,TGI,MDA-N,> 100 µM
same,TGI,MOLT-4 leukemia,> 100 µM
same,TGI,NCI-H23 lung,> 100 µM
same,TGI,NCI-H460 lung,> 100 µM
same,TGI,NCI-H522 lung,> 100 µM
same,TGI,NCI/ADR-RES ovarian,> 100 µM
same,TGI,OVCAR-3 ovarian,> 100 µM
same,TGI,OVCAR-4 ovarian,62.9 µM
same,TGI,OVCAR-5 ovarian,> 100 µM
same,TGI,OVCAR-8 ovarian,> 100 µM
same,TGI,PC-3 prostate,> 100 µM
same,TGI,RPMI-8226 leukemia,> 100 µM
same,TGI,SF-268 CNS,> 100 µM
same,TGI,SF-295 CNS,> 100 µM
same,TGI,SF-539 CNS,> 100 µM
same,TGI,SK-MEL-2 melanoma,> 100 µM
same,TGI,SK-MEL-28 melanoma,> 100 µM
same,TGI,SK-MEL-5 melanoma,> 100 µM
same,TGI,SK-OV-3 ovarian,> 100 µM
same,TGI,SN12C renal,> 100 µM
same,TGI,SNB-19 CNS,> 100 µM
same,TGI,SR leukemia,> 100 µM
same,TGI,SW-620 colon,> 100 µM
same,TGI,T-47D breast,> 100 µM
same,TGI,TK-10 renal,> 100 µM
same,TGI,U251 CNS,> 100 µM
same,TGI,UACC-257 melanoma,> 100 µM
same,TGI,UACC-62 melanoma,> 100 µM
same,TGI,UO-31 renal,24.7 µM
COc1ccc(Nc2nc3cc(C(F)(F)F)ccc3n3cccc23)cc1OC,TGI,786-0 renal,24.7 µM
same,TGI,A498 renal,32.6 µM
same,TGI,A549 NSCLC,50.8 µM
same,TGI,ACHN renal,74.3 µM
same,TGI,BT-549 breast,56.1 µM
same,TGI,CAKI-1 renal,> 100 µM
same,TGI,CCRF-CEM leukemia,> 100 µM
same,TGI,DU-145 prostate,52.6 µM
same,TGI,EKVX NSCLC,58.5 µM
same,TGI,HCC-2998 colon,27.3 µM
same,TGI,HCT-116 colon,27.4 µM
same,TGI,HCT-15 colon,56.1 µM
same,TGI,HL-60(TB) leukemia,67 µM
same,TGI,HOP-62 NSCLC,48.7 µM
same,TGI,HOP-92 NSCLC,47.5 µM
same,TGI,HS 578T breast,> 100 µM
same,TGI,HT29 colon,24.1 µM
same,TGI,IGROV1 ovarian,> 100 µM
same,TGI,K-562 leukemia,52.6 µM
same,TGI,KM12 colon,34 µM
same,TGI,LOX IMVI melanoma,15.8 µM
same,TGI,M14 melanoma,31.3 µM
same,TGI,MALME-3M melanoma,54.4 µM
same,TGI,MCF7 breast,51.5 µM
same,TGI,MDA-MB-231 breast,36.5 µM
same,TGI,MDA-MB-435,36.3 µM
same,TGI,MDA-N,29.3 µM
same,TGI,MOLT-4 leukemia,37.8 µM
same,TGI,NCI-H23 lung,43.2 µM
same,TGI,NCI-H460 lung,28.7 µM
same,TGI,NCI-H522 lung,41.5 µM
same,TGI,NCI/ADR-RES ovarian,50.1 µM
same,TGI,OVCAR-3 ovarian,54 µM
same,TGI,OVCAR-5 ovarian,58 µM
same,TGI,OVCAR-8 ovarian,87.8 µM
same,TGI,PC-3 prostate,26.8 µM
same,TGI,RPMI-8226 leukemia,55.1 µM
same,TGI,RXF 393 renal,29 µM
same,TGI,SF-268 CNS,> 100 µM
same,TGI,SF-295 CNS,30.1 µM
same,TGI,SF-539 CNS,34 µM
same,TGI,SK-MEL-2 melanoma,30.9 µM
same,TGI,SK-MEL-28 melanoma,> 100 µM
same,TGI,SK-MEL-5 melanoma,27.6 µM
same,TGI,SK-OV-3 ovarian,92.1 µM
same,TGI,SNB-19 CNS,60.9 µM
same,TGI,SNB-75 CNS,39.5 µM
same,TGI,SR leukemia,34.9 µM
same,TGI,SW-620 colon,> 100 µM
same,TGI,T-47D breast,34.9 µM
same,TGI,TK-10 renal,49 µM
same,TGI,U251 CNS,28.6 µM
same,TGI,UACC-257 melanoma,34.8 µM
same,TGI,UACC-62 melanoma,28.9 µM
same,TGI,UO-31 renal,63.4 µM
COc1ccc2cc1Oc1ccc(cc1)CC1c3cc(OC)c(cc3CCN1C)Oc1c(OC)c(OC)cc3c1C(C2)N(C)CC3 (stereo not given),TGI,786-0 renal,30.4 µM
same,TGI,A498 renal,23.9 µM
same,TGI,A549 NSCLC,53.4 µM
same,TGI,ACHN renal,19 µM
same,TGI,BT-549 breast,20.9 µM
same,TGI,CAKI-1 renal,29.4 µM
same,TGI,CCRF-CEM leukemia,42.4 µM
same,TGI,COLO 205 colon,11.8 µM
same,TGI,DU-145 prostate,27.9 µM
same,TGI,EKVX NSCLC,31.7 µM
same,TGI,HCC-2998 colon,19.1 µM
same,TGI,HCT-116 colon,> 75 µM
same,TGI,HCT-15 colon,18.3 µM
same,TGI,HL-60(TB) leukemia,16.3 µM
same,TGI,HOP-92 NSCLC,34.1 µM
same,TGI,HS 578T breast,25.6 µM
same,TGI,HT29 colon,18 µM
same,TGI,IGROV1 ovarian,64.2 µM
same,TGI,K-562 leukemia,28.7 µM
same,TGI,KM12 colon,26 µM
same,TGI,LOX IMVI melanoma,28 µM
same,TGI,M14 melanoma,15 µM
same,TGI,MALME-3M melanoma,23.1 µM
same,TGI,MCF7 breast,36.7 µM
same,TGI,MDA-MB-231 breast,21.5 µM
same,TGI,MDA-MB-435,26.2 µM
same,TGI,MDA-N,20.3 µM
same,TGI,MOLT-4 leukemia,32.4 µM
same,TGI,NCI-H226 lung,51.7 µM
same,TGI,NCI-H23 lung,35.6 µM
same,TGI,NCI-H460 lung,19.8 µM
same,TGI,NCI-H522 lung,20.6 µM
same,TGI,NCI/ADR-RES ovarian,29.9 µM
same,TGI,OVCAR-4 ovarian,24.4 µM
same,TGI,OVCAR-5 ovarian,> 75 µM
same,TGI,OVCAR-8 ovarian,23.2 µM
same,TGI,PC-3 prostate,40.7 µM
same,TGI,SF-268 CNS,33.6 µM
same,TGI,SF-295 CNS,21.1 µM
same,TGI,SF-539 CNS,19.5 µM
same,TGI,SK-MEL-2 melanoma,25.6 µM
same,TGI,SK-MEL-28 melanoma,34.9 µM
same,TGI,SK-MEL-5 melanoma,15.9 µM
same,TGI,SK-OV-3 ovarian,> 75 µM
same,TGI,SN12C renal,18.3 µM
same,TGI,SNB-19 CNS,27.1 µM
same,TGI,SNB-75 CNS,18.2 µM
same,TGI,SR leukemia,4.33 µM
same,TGI,SW-620 colon,> 75 µM
same,TGI,T-47D breast,20.5 µM
same,TGI,TK-10 renal,20.6 µM
same,TGI,U251 CNS,24.6 µM
same,TGI,UACC-257 melanoma,16.1 µM
same,TGI,UACC-62 melanoma,23.3 µM
same,TGI,UO-31 renal,18.8 µM
